Source: the NIST ThermoML archive (doi:10.1016/j.jct.2008.10.010)
± gives the expanded uncertainty stated by the source.

Assay: molar heat capacity at constant pressure; xn = mol fraction of the nth substance listed
Settings: 101.3 kPa, Liquid, Small sample (50 mg) DSC

SMILES: CCC(C)(C)O [2-methylbutan-2-ol] + CCCCCCC
- molar heat capacity at constant pressure (345.14 K, x1 = 0.0249): 244.12 ± 3.8 J/K/mol
- molar heat capacity at constant pressure (345.14 K, x1 = 0.0494): 246.22 ± 3.8 J/K/mol
- molar heat capacity at constant pressure (345.14 K, x1 = 0.1): 253.28 ± 3.9 J/K/mol
- molar heat capacity at constant pressure (345.14 K, x1 = 0.1547): 260.94 ± 4 J/K/mol
- molar heat capacity at constant pressure (345.14 K, x1 = 0.1999): 266.5 ± 4.1 J/K/mol
- molar heat capacity at constant pressure (345.14 K, x1 = 0.2993): 275.63 ± 4.3 J/K/mol
- molar heat capacity at constant pressure (345.14 K, x1 = 0.4051): 282.19 ± 4.4 J/K/mol
- molar heat capacity at constant pressure (345.14 K, x1 = 0.4986): 286.41 ± 4.4 J/K/mol
- molar heat capacity at constant pressure (345.14 K, x1 = 0.5981): 289.46 ± 4.5 J/K/mol
- molar heat capacity at constant pressure (345.14 K, x1 = 0.7015): 291.51 ± 4.5 J/K/mol
- molar heat capacity at constant pressure (345.14 K, x1 = 0.8023): 291.94 ± 4.5 J/K/mol
- molar heat capacity at constant pressure (345.14 K, x1 = 0.9139): 291.66 ± 4.5 J/K/mol
- molar heat capacity at constant pressure (345.14 K, x1 = 0.9609): 290.76 ± 4.5 J/K/mol
- molar heat capacity at constant pressure (346.15 K, x1 = 0.0061): 244.11 ± 3.8 J/K/mol
- molar heat capacity at constant pressure (346.15 K, x1 = 0.0249): 244.51 ± 3.8 J/K/mol
- molar heat capacity at constant pressure (346.15 K, x1 = 0.0494): 246.51 ± 3.8 J/K/mol
- molar heat capacity at constant pressure (346.15 K, x1 = 0.1): 253.41 ± 3.9 J/K/mol
- molar heat capacity at constant pressure (346.15 K, x1 = 0.1547): 261 ± 4 J/K/mol
- molar heat capacity at constant pressure (346.15 K, x1 = 0.1999): 266.61 ± 4.1 J/K/mol
- molar heat capacity at constant pressure (346.15 K, x1 = 0.2993): 275.72 ± 4.3 J/K/mol
- molar heat capacity at constant pressure (346.15 K, x1 = 0.4051): 282.35 ± 4.4 J/K/mol
- molar heat capacity at constant pressure (346.15 K, x1 = 0.4986): 286.63 ± 4.4 J/K/mol
- molar heat capacity at constant pressure (346.15 K, x1 = 0.5981): 289.78 ± 4.5 J/K/mol
- molar heat capacity at constant pressure (346.15 K, x1 = 0.7015): 291.88 ± 4.5 J/K/mol
- molar heat capacity at constant pressure (346.15 K, x1 = 0.8023): 292.49 ± 4.5 J/K/mol
- molar heat capacity at constant pressure (346.15 K, x1 = 0.9139): 292.09 ± 4.5 J/K/mol
- molar heat capacity at constant pressure (346.15 K, x1 = 0.9609): 291.29 ± 4.5 J/K/mol
- molar heat capacity at constant pressure (347.13 K, x1 = 0.0494): 246.82 ± 3.8 J/K/mol
- molar heat capacity at constant pressure (347.15 K, x1 = 0.9139): 292.63 ± 4.5 J/K/mol
- molar heat capacity at constant pressure (347.16 K, x1 = 0.0061): 244.48 ± 3.8 J/K/mol
- molar heat capacity at constant pressure (347.16 K, x1 = 0.0249): 244.81 ± 3.8 J/K/mol
- molar heat capacity at constant pressure (347.16 K, x1 = 0.1): 253.4 ± 3.9 J/K/mol
- molar heat capacity at constant pressure (347.16 K, x1 = 0.1547): 261.01 ± 4 J/K/mol
- molar heat capacity at constant pressure (347.16 K, x1 = 0.1999): 266.57 ± 4.1 J/K/mol
- molar heat capacity at constant pressure (347.16 K, x1 = 0.2993): 275.89 ± 4.3 J/K/mol
- molar heat capacity at constant pressure (347.16 K, x1 = 0.4051): 282.48 ± 4.4 J/K/mol
- molar heat capacity at constant pressure (347.16 K, x1 = 0.4986): 286.83 ± 4.4 J/K/mol
- molar heat capacity at constant pressure (347.16 K, x1 = 0.5981): 290.05 ± 4.5 J/K/mol
- molar heat capacity at constant pressure (347.16 K, x1 = 0.7015): 292.26 ± 4.5 J/K/mol
- molar heat capacity at constant pressure (347.16 K, x1 = 0.8023): 292.88 ± 4.5 J/K/mol
- molar heat capacity at constant pressure (347.16 K, x1 = 0.9609): 291.82 ± 4.5 J/K/mol
- molar heat capacity at constant pressure (348.14 K, x1 = 0.0061): 244.95 ± 3.8 J/K/mol
- molar heat capacity at constant pressure (348.14 K, x1 = 0.0249): 245.23 ± 3.8 J/K/mol
- molar heat capacity at constant pressure (348.14 K, x1 = 0.0494): 247.05 ± 3.8 J/K/mol
- molar heat capacity at constant pressure (348.14 K, x1 = 0.1): 253.5 ± 3.9 J/K/mol
- molar heat capacity at constant pressure (348.14 K, x1 = 0.2993): 275.95 ± 4.3 J/K/mol
- molar heat capacity at constant pressure (348.14 K, x1 = 0.4051): 282.77 ± 4.4 J/K/mol
- molar heat capacity at constant pressure (348.14 K, x1 = 0.4986): 287.07 ± 4.5 J/K/mol
- molar heat capacity at constant pressure (348.14 K, x1 = 0.5981): 290.42 ± 4.5 J/K/mol
- molar heat capacity at constant pressure (348.14 K, x1 = 0.7015): 292.68 ± 4.5 J/K/mol
- molar heat capacity at constant pressure (348.14 K, x1 = 0.8023): 293.3 ± 4.5 J/K/mol
- molar heat capacity at constant pressure (348.14 K, x1 = 0.9139): 293.11 ± 4.5 J/K/mol
- molar heat capacity at constant pressure (348.14 K, x1 = 0.9609): 292.28 ± 4.5 J/K/mol
- molar heat capacity at constant pressure (348.16 K, x1 = 0.1547): 261.02 ± 4 J/K/mol
- molar heat capacity at constant pressure (348.16 K, x1 = 0.1999): 266.63 ± 4.1 J/K/mol
- molar heat capacity at constant pressure (349.15 K, x1 = 0.0061): 245.31 ± 3.8 J/K/mol
- molar heat capacity at constant pressure (349.15 K, x1 = 0.0249): 245.69 ± 3.8 J/K/mol
- molar heat capacity at constant pressure (349.15 K, x1 = 0.0494): 247.42 ± 3.8 J/K/mol
- molar heat capacity at constant pressure (349.15 K, x1 = 0.1): 253.6 ± 3.9 J/K/mol
- molar heat capacity at constant pressure (349.15 K, x1 = 0.1547): 261.07 ± 4 J/K/mol
- molar heat capacity at constant pressure (349.15 K, x1 = 0.1999): 266.66 ± 4.1 J/K/mol
- molar heat capacity at constant pressure (349.15 K, x1 = 0.2993): 276.06 ± 4.3 J/K/mol
- molar heat capacity at constant pressure (349.15 K, x1 = 0.4051): 282.91 ± 4.4 J/K/mol
- molar heat capacity at constant pressure (349.15 K, x1 = 0.4986): 287.38 ± 4.5 J/K/mol
- molar heat capacity at constant pressure (349.15 K, x1 = 0.5981): 290.79 ± 4.5 J/K/mol
- molar heat capacity at constant pressure (349.15 K, x1 = 0.7015): 293.13 ± 4.5 J/K/mol
- molar heat capacity at constant pressure (349.15 K, x1 = 0.8023): 293.78 ± 4.5 J/K/mol
- molar heat capacity at constant pressure (349.15 K, x1 = 0.9139): 293.7 ± 4.5 J/K/mol
- molar heat capacity at constant pressure (349.15 K, x1 = 0.9609): 292.9 ± 4.5 J/K/mol
- molar heat capacity at constant pressure (350.15 K, x1 = 0.0061): 245.7 ± 3.8 J/K/mol
- molar heat capacity at constant pressure (350.15 K, x1 = 0.0494): 247.73 ± 3.8 J/K/mol
- molar heat capacity at constant pressure (350.15 K, x1 = 0.1999): 266.71 ± 4.1 J/K/mol
- molar heat capacity at constant pressure (350.15 K, x1 = 0.4986): 287.48 ± 4.5 J/K/mol
- molar heat capacity at constant pressure (350.15 K, x1 = 0.5981): 290.98 ± 4.5 J/K/mol
- molar heat capacity at constant pressure (350.15 K, x1 = 0.7015): 293.35 ± 4.5 J/K/mol
- molar heat capacity at constant pressure (350.15 K, x1 = 0.8023): 294.18 ± 4.6 J/K/mol
- molar heat capacity at constant pressure (350.15 K, x1 = 0.9139): 294.04 ± 4.6 J/K/mol
- molar heat capacity at constant pressure (350.15 K, x1 = 0.9609): 293.31 ± 4.5 J/K/mol
- molar heat capacity at constant pressure (350.16 K, x1 = 0.0249): 245.9 ± 3.8 J/K/mol
- molar heat capacity at constant pressure (350.16 K, x1 = 0.1): 253.7 ± 3.9 J/K/mol
- molar heat capacity at constant pressure (350.16 K, x1 = 0.1547): 261.07 ± 4 J/K/mol
- molar heat capacity at constant pressure (350.16 K, x1 = 0.2993): 276.06 ± 4.3 J/K/mol
- molar heat capacity at constant pressure (350.16 K, x1 = 0.4051): 283.01 ± 4.4 J/K/mol
- molar heat capacity at constant pressure (351.14 K, x1 = 0.0061): 246.16 ± 3.8 J/K/mol
- molar heat capacity at constant pressure (351.14 K, x1 = 0.0249): 246.29 ± 3.8 J/K/mol
- molar heat capacity at constant pressure (351.14 K, x1 = 0.0494): 247.89 ± 3.8 J/K/mol
- molar heat capacity at constant pressure (351.14 K, x1 = 0.1): 253.68 ± 3.9 J/K/mol
- molar heat capacity at constant pressure (351.14 K, x1 = 0.1547): 261.02 ± 4 J/K/mol
- molar heat capacity at constant pressure (351.14 K, x1 = 0.1999): 266.6 ± 4.1 J/K/mol
- molar heat capacity at constant pressure (351.14 K, x1 = 0.4051): 283 ± 4.4 J/K/mol
- molar heat capacity at constant pressure (351.14 K, x1 = 0.4986): 287.61 ± 4.5 J/K/mol
- molar heat capacity at constant pressure (351.14 K, x1 = 0.5981): 291.23 ± 4.5 J/K/mol
- molar heat capacity at constant pressure (351.14 K, x1 = 0.7015): 293.67 ± 4.5 J/K/mol
- molar heat capacity at constant pressure (351.14 K, x1 = 0.8023): 294.44 ± 4.6 J/K/mol
- molar heat capacity at constant pressure (351.14 K, x1 = 0.9139): 294.48 ± 4.6 J/K/mol
- molar heat capacity at constant pressure (351.14 K, x1 = 0.9609): 293.76 ± 4.5 J/K/mol
- molar heat capacity at constant pressure (351.16 K, x1 = 0.2993): 276.1 ± 4.3 J/K/mol
- molar heat capacity at constant pressure (352.15 K, x1 = 0.0061): 246.53 ± 3.8 J/K/mol
- molar heat capacity at constant pressure (352.15 K, x1 = 0.0249): 246.7 ± 3.8 J/K/mol
- molar heat capacity at constant pressure (352.15 K, x1 = 0.0494): 248.24 ± 3.9 J/K/mol
- molar heat capacity at constant pressure (352.15 K, x1 = 0.1): 253.93 ± 3.9 J/K/mol
- molar heat capacity at constant pressure (352.15 K, x1 = 0.1547): 261.06 ± 4 J/K/mol
- molar heat capacity at constant pressure (352.15 K, x1 = 0.1999): 266.66 ± 4.1 J/K/mol
- molar heat capacity at constant pressure (352.15 K, x1 = 0.2993): 276.22 ± 4.3 J/K/mol
- molar heat capacity at constant pressure (352.15 K, x1 = 0.4051): 283.15 ± 4.4 J/K/mol
- molar heat capacity at constant pressure (352.15 K, x1 = 0.4986): 287.82 ± 4.5 J/K/mol
- molar heat capacity at constant pressure (352.15 K, x1 = 0.5981): 291.44 ± 4.5 J/K/mol
- molar heat capacity at constant pressure (352.15 K, x1 = 0.7015): 293.88 ± 4.5 J/K/mol
- molar heat capacity at constant pressure (352.15 K, x1 = 0.8023): 294.82 ± 4.6 J/K/mol
- molar heat capacity at constant pressure (352.15 K, x1 = 0.9139): 294.82 ± 4.6 J/K/mol
- molar heat capacity at constant pressure (352.15 K, x1 = 0.9609): 294.14 ± 4.6 J/K/mol
- molar heat capacity at constant pressure (353.15 K, x1 = 0.0061): 246.79 ± 3.8 J/K/mol
- molar heat capacity at constant pressure (353.15 K, x1 = 0.0249): 247.03 ± 3.8 J/K/mol
- molar heat capacity at constant pressure (353.15 K, x1 = 0.0494): 248.53 ± 3.9 J/K/mol
- molar heat capacity at constant pressure (353.15 K, x1 = 0.1): 253.91 ± 3.9 J/K/mol
- molar heat capacity at constant pressure (353.15 K, x1 = 0.1547): 260.99 ± 4 J/K/mol
- molar heat capacity at constant pressure (353.15 K, x1 = 0.1999): 266.57 ± 4.1 J/K/mol
- molar heat capacity at constant pressure (353.15 K, x1 = 0.2993): 276.2 ± 4.3 J/K/mol
- molar heat capacity at constant pressure (353.15 K, x1 = 0.4051): 283.18 ± 4.4 J/K/mol
- molar heat capacity at constant pressure (353.15 K, x1 = 0.4986): 287.86 ± 4.5 J/K/mol
- molar heat capacity at constant pressure (353.15 K, x1 = 0.5981): 291.63 ± 4.5 J/K/mol
- molar heat capacity at constant pressure (353.15 K, x1 = 0.7015): 294.17 ± 4.6 J/K/mol
- molar heat capacity at constant pressure (353.15 K, x1 = 0.8023): 295.16 ± 4.6 J/K/mol
- molar heat capacity at constant pressure (353.15 K, x1 = 0.9139): 295.27 ± 4.6 J/K/mol
- molar heat capacity at constant pressure (353.15 K, x1 = 0.9609): 294.55 ± 4.6 J/K/mol
